Measurements as given in US7674429B2, “Electrostatic disinfectant delivery” (JohnsonDiversey, Inc., priority 2001, dated 2010).

What was measured:
[1] = Viscosity measurement (Brookfield DV-III rheometer); assay type: physicochemical
Procedure: (§1) Various disinfectant compositions were measured to determine associated viscosity, conductivity and/or delivery rate parameters. Viscosity measurements were conducted with a Brookfield DV-III rheometer using procedures well known to those skilled in the art. Conductivity measurements were taken using a conductivity meter (Accumet Basic AV30) instrument using a two cell conductivity probe (epoxy body with a cell constant of 1.0). Delivery rates were determined with a preferred electrostatic delivery apparatus, available through In-Vironmental Integrity, Inc. of Minneapolis, Minn. under the “Aromasys” trademark using standard procedures and protocols.

[2] = Conductivity measurement (Accumet Basic AV30, two cell probe); assay type: physicochemical
Procedure: as §1

OCCOCCOCCO [triethylene glycol]
viscosity [1]: 51.5 cps
conductivity [2]: 0.354 uS/cm
